{"source": "patent US12365674B2", "about": "“Inhibitors of histone deacetylase useful for the treatment or prevention of HIV infection” (Merck Sharp & Dohme LLC, priority 2019, dated 2025)"}
{"molecular_target": "T1, HDAC6 (Homo sapiens, UniProt Q9UBN7)", "T1 sequence (Q9UBN7 1-1215)": "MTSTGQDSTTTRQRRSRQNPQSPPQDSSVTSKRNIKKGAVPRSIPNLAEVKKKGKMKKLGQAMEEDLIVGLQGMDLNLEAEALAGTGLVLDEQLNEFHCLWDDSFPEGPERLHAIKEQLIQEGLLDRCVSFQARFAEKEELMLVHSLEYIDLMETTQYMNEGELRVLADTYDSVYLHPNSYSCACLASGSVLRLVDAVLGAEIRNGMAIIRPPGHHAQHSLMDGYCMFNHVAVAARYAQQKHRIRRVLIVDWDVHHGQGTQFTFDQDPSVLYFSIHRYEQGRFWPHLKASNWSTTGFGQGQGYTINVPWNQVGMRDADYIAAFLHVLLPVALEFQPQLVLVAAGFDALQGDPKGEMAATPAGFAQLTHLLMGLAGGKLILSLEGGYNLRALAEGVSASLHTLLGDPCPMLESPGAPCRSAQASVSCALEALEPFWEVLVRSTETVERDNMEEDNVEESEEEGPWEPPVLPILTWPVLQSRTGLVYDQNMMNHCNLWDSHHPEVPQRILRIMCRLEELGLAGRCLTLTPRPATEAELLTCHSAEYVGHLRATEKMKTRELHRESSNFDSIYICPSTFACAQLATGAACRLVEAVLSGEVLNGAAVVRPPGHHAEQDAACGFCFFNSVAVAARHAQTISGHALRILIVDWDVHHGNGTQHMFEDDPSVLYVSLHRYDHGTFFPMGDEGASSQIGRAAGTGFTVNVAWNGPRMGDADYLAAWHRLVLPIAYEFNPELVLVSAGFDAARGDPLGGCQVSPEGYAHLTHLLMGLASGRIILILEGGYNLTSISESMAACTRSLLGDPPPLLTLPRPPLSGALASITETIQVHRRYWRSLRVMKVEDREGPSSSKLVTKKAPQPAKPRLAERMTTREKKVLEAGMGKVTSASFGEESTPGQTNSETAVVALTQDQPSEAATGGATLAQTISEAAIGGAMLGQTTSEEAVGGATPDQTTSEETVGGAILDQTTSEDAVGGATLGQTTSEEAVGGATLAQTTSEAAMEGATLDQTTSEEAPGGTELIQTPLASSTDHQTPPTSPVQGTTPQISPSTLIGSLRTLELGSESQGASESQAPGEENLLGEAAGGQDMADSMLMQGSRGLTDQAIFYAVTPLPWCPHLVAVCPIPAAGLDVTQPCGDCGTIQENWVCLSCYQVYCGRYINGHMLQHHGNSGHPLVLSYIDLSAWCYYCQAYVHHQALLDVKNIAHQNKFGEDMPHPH", "experiment": "Human HDAC enzyme inhibitor Fluor-de-Lys assay, HDAC6", "format": "biochemical", "details": "1.3 nM enzyme, 2.5 μM substrate BML-KI104, 3 h pre-incubation, 60 min reaction; read-out: HDAC6_IC50", "text": "Recombinant human HDAC8 (catalog number BML-SE145-0100) and HDAC10 (catalog number BML-SE559-0050) enzymes, HDAC substrates BML-KI104 and BML-KI178, and HDAC developer solutions BML-KI105 and BML-KI176 were purchased from Enzo Life Sciences (Farmingdale, NY). Recombinant human HDAC5 and HDAC11 were purchased from BPS Bioscience (San Diego, CA)(catalog numbers 50045 and 50021). Substrate Boc-Lys(TFA)-AMC was obtained from Bachem (Bupendorf, Switzerland) (catalog number 1-1985). HDAC inhibitor suberoylanilide hydroxamic acid (SAHA) was obtained from Indofine (Hillsborough Township, NJ) and trichostatin A (TSA) was obtained from Sigma-Aldrich (St. Louis, MO). […] HEPES pH 8.0 was obtained from Boston BioProducts (Ashland, MA), Tween-20 from Fisher Scientific (Hampton, NH)(catalog number BP337), TCEP from Calbiochem and 7.5% bovine serum albumin (BSA) from Life Technologies (Carlsbad, CA) (catalog number 15260037). 384-well, black assay plates were obtained from Corning (Corning, NY) (catalog number 3575).\nThe histone deacetylase activities of HDAC1, HDAC2, HDAC3, HDAC6, and HDAC8 were measured in modified Fluor-de-Lys assays in 384-well format. In this assay, HDAC enzymes are initially incubated with an ε-acetyl (or -trifluoroacetyl)-L-lysine-containing substrate with a C-terminal amide having aminomethylcoumarin as the amine component. HDACs cleave the ε-acetyl group, rendering the resulting product susceptible to AMC cleavage by trypsin. The released AMC is then detected by its fluorescence.\nThe HDAC 1, 2 assays employed buffer A, which contained 20 mM HEPES, pH 8.0, 1 mM MgCl2, 137 mM NaCl, 2.7 mM KCl, 0.05% BSA. The HDAC3/SMRT assay employed buffer B, consisting of 20 mM HEPES, pH 8.0, 1 mM MgCl2, 50 mM NaCl, 2.7 mM KCl, 0.05% BSA, 0.005% Tween 20, and 10 μM IP4. The HDAC6 assay employed buffer C, consisting of 20 mM HEPES, pH 8.0, 1 mM MgCl2, 137 mM NaCl, 2.7 mM KCl, 0.5 mM TCEP (Calbiochem) and 0.05% BSA. The HDAC8 assay employed buffer D, consisting of 20 mM HEPES, pH 8.0, 1 mM MgCl2, 100 mM NaCl, 20 mM KCl, 0.1% n-octyl-β-D-glucoside (Anatrace, Maumee, OH) and 0.05% BSA. All steps were performed at room temperature (23° C.). The assay was performed by pre-incubating serial dilutions of test compounds with the target HDAC prior to initiation with substrate. Each compound was titrated in a 10-point dose response, using a 1:3 fold dilution scheme, with 0.15 ul of solution added by ECHO555 to the plate, followed by the addition of 20 μl of the appropriate HDAC isoform diluted in appropriate assay buffer. […] Final conditions used for each assay were: 1. HDAC 1, 0.3 nM total enzyme, 20 μM substrate BML-K1104; 2. HDAC 2, 1.5 nM total enzyme, 40 μM substrate BML-K1104; 3. HDAC 3/SMRT, 0.3 nM total enzyme, 20 μM substrate BML-K1104; 4. HDAC 6, 1.3 nM total enzyme, 2.5 μM substrate BML-K1104; 5. HDAC 8, 1.3 nM total enzyme, 200 μM substrate BML-K1178; the final high dose of test compound was 30 μM. For potent compounds, 900 nM was used as the final high dose. The reactions were stopped and developed by addition of 30 ul of HDAC developer solution containing a saturating level of HDAC inhibitor as follows: 1.", "units": {"IC50": "µM"}}
{"compound": "CN1CC(C(=O)N[C@@H](COCCCC(=O)c2ccon2)c2[nH]c(-c3ccc(F)cc3)nc2Cl)C1", "note": "[Compound 16, N-[(1R)-1-[4-chloro-2-(4-fluorophenyl)-1H-imidazol-5-yl]-2-(4-isoxazol-3-yl-4-oxobutoxy)ethyl]-1-methylazetidine-3-carboxamide]", "IC50": "> 0.9"}
{"compound": "CNC(=O)C(=O)CCCOC[C@H](NC(=O)C12CCN(CC1)CC2)c1ncc(-c2cc3ccccc3nc2OC)[nH]1", "note": "[Compound 9, N-[(1R)-1-[5-(2-methoxyquinolin-3-yl)-1H-imidazol-2-yl]-2-{[5-(methylamino)-4,5-dioxopentyl]oxy}ethyl]-1-azabicyclo[2.2.2]octane-4-carboxamide]", "IC50": "> 45"}
{"compound": "CN1CCC2(CC1)C[C@@H]2C(=O)N[C@@H](COCCCC(=O)c1ccon1)c1[nH]c(-c2ccc(F)cc2)nc1Cl", "note": "[Compound 18, (1S)-N-[(1R)-1-[4-chloro-2-(4-fluorophenyl)-1H-imidazol-5-yl]-2-(4-isoxazol-3-yl-4-oxobutoxy)ethyl]-6-methyl-6-azaspiro[2.5]octane-1-carboxamide]", "IC50": "> 0.9"}
{"compound": "CCC(=O)CCCOC[C@H](NC(=O)c1cncs1)c1ncc(-c2cc3ccccc3nc2OC)[nH]1", "note": "[Compound 5, N-{(1R)-1-[5-(2-methoxyquinolin-3-yl)-1H-imidazol-2-yl]-2-[(4-oxohexyl)oxy]ethyl}-1,3-thiazole-5-carboxamide]", "IC50": "> 45"}
{"compound": "Cc1ccc2cc(-c3cnc([C@H](CSCCCC(=O)c4ncco4)NC(=O)[C@H]4CC45CCN(C)CC5)[nH]3)ccc2n1", "note": "[Compound 21, (1S)-6-methyl-N-[(1R)-1-[5-(2-methylquinolin-6-yl)-1H-imidazol-2-yl]-2-{[4-(1,3-oxazol-2-yl)-4-oxobutyl]sulfanyl}ethyl]-6-azaspiro[2.5]octane-1-carboxamide]", "IC50": 19.3}
{"compound": "CCC(=O)CCCOC[C@H](NC(=O)C12CCN(CC1)CC2)c1ncc(-c2cc3ccccc3nc2OC)[nH]1", "note": "[Compound 6, N-{(1R)-1-[5-(2-methoxyquinolin-3-yl)-1H-imidazol-2-yl]-2-[(4-oxohexyl)oxy]ethyl}-1-azabicyclo[2.2.2]octane-4-carboxamide]", "IC50": "> 45"}
{"compound": "CN(C)CC(=O)N[C@@H](COCCCC(=O)c1ccon1)c1[nH]c(-c2ccc(F)cc2)nc1Cl", "note": "[Compound 17, N-[(1R)-1-[4-chloro-2-(4-fluorophenyl)-1H-imidazol-5-yl]-2-(4-isoxazol-3-yl-4-oxobutoxy)ethyl]-N~2~,N~2~- dimethylglycinamide]", "IC50": "> 0.9"}
{"compound": "CNC(=O)C(=O)CCCOC[C@H](NC(=O)c1cncs1)c1ncc(-c2cc3ccccc3nc2OC)[nH]1", "note": "[Compound 8, N-[(1R)-1-[5-(2-methoxyquinolin-3-yl)-1H-imidazol-2-yl]-2-{[5-(methylamino)-4,5-dioxopentyl]oxy}ethyl]-1,3-thiazole-5-carboxamide]", "IC50": 5.11}
{"compound": "COc1nc2ccccc2cc1-c1cnc([C@H](COCCCC(=O)c2ncco2)NC(=O)CN(C)C)[nH]1", "note": "[Compound 13, N-{(1R)-1-[5-(2-methoxyquinolin-3-yl)-1H-imidazol-2-yl]-2-[4-(1,3-oxazol-2-yl)-4-oxobutoxy]ethyl}-N~2~,N~2~- dimethylglycinamide]", "IC50": "> 45"}
{"compound": "COc1nc2ccccc2cc1-c1cnc([C@H](COCCCC(=O)c2ncco2)NC(=O)c2cncs2)[nH]1", "note": "[Compound 10, N-{(1R)-1-[5-(2-methoxyquinolin-3-yl)-1H-imidazol-2-yl]-2-[4-(1,3-oxazol-2-yl)-4-oxobutoxy]ethyl}-1,3-thiazole-5-carboxamide]", "IC50": "> 45"}
{"compound": "COc1nc2ccccc2cc1-c1cnc([C@H](COCCCC(=O)c2ncco2)NC(=O)[C@H]2CC23CCN(C)CC3)[nH]1", "note": "[Compound 11, (1S)-N-{(1R)-1-[5-(2-methoxyquinolin-3-yl)-1H-imidazol-2-yl]-2-[4-(1,3-oxazol-2-yl)-4-oxobutoxy]ethyl}-6-methyl-6-azaspiro[2.5]octane-1-carboxamide]", "IC50": "> 45"}
{"compound": "CCC(=O)CCCOC[C@H](NC(=O)[C@H]1CC12CCN(CC)CC2)c1ncc(-c2cc3ccccc3nc2OC)[nH]1", "note": "[Compound 7, (1S)-6-ethyl-N-{(1R)-1-[5-(2-methoxyquinolin-3-yl)-1H-imidazol-2-yl]-2-[(4-oxohexyl)oxy]ethyl}-6-azaspiro[2.5]octane-1-carboxamide]", "IC50": 19}
{"compound": "COc1cc2nc(C)ccc2cc1-c1cnc([C@H](COCCCC(=O)c2cc(C)on2)NC(=O)C2CN(C)C2)[nH]1", "note": "[Compound 19, N-{(1R)-1-[5-(7-methoxy-2-methylquinolin-6-yl)-1H-imidazol-2-yl]-2-[4-(5-methylisoxazol-3-yl)-4-oxobutoxy]ethyl}-1-methylazetidine-3-carboxamide]", "IC50": 0.469}
{"compound": "N[C@@H](COCCCC(=O)c1ccon1)c1ncc(-c2ccccc2F)[nH]1", "note": "[Compound 2, (R)-4-(2-amino-2-(5-(2-fluorophenyl)-1H-imidazol-2-yl)ethoxy)-1-(isoxazol-3-yl)butan-1-one]", "IC50": "> 0.9"}
{"compound": "COc1nc2ccccc2cc1-c1cnc([C@H](COCCCC(=O)c2ccon2)NC(=O)CN(C)C)[nH]1", "note": "[Compound 14, N-{(1R)-2-(4-isoxazol-3-yl-4-oxobutoxy)-1-[5-(2-methoxyquinolin-3-yl)-1H-imidazol-2-yl]ethyl}-N~2~,N~2~- dimethylglycinamide]", "IC50": "> 45"}
{"compound": "CN1CC(C(=O)N[C@@H](COCCCC(=O)c2ccon2)c2ncc(-c3ccccc3F)[nH]2)C1", "note": "[Compound 15, N-[(1R)-1-[5-(2-fluorophenyl)-1H-imidazol-2-yl]-2-(4-isoxazol-3-yl-4-oxobutoxy)ethyl]-1-methylazetidine-3-carboxamide]", "IC50": "> 0.9"}
